In patent US10285967B2, “Monoacylglycerols for use in conjunction with a lipase inhibitor and/or diets low in fat and/or calories” (NESTEC S.A., priority 2013, dated 2019):

Tests used:
[1] = lipid maldigestion or malabsorption rat model (XENICAL-induced), EPA level in red blood cell lipids; format: in vivo; settings: FIG. 2; for level of EPA incorporated in red blood cells: rats, day 7, with XENICAL (ORLISTAT)
Description: The concept was tested in a lipid maldigestion or malabsorption rat model. The maldigestion or malabsorption condition was obtained using XENICAL® (ORLISTAT), a pancreatic and gastric lipases inhibitor (tetrahydrolipstatin; see FIG. 7). Rats were fed during 21 days with long-chain polyunsaturated fatty acid (LC-PUFA) supplements containing mainly eicosapentaenoic (EPA) acid. Fish oil was used as a source of triacylglycerols, and different EPA glycerides were evaluated. XENICAL® (ORLISTAT) was given at a level sufficient to decrease lipid absorption by 40%. A group receiving fish oil without XENICAL® (ORLISTAT) was used as a positive control. At different time intervals (D3, D7, D14 and D21), the fatty acid profiles of red blood cell and plasma lipids were determined. At the end of the experiment, the fatty acid profiles of different tissues were determined.
The main objective was to follow the level of EPA in red blood cell and plasma lipids. The main comparison evaluated was the difference in EPA level between the group receiving EPA-containing sn-1(3) MAG (FIG. 1) in combination with XENICAL® (ORLISTAT) and the […] (fish oil+XENICAL® (ORLISTAT)).
This comparison corroborates the validity of the model.

[2] = clinical study of EPA delivery under lipid maldigestion induced by XENICAL (ORLISTAT); format: in vivo, human
Description: This clinical study compared the efficacy of sn-1(3) MAG and fish oil (TAG) in delivering EPA in humans under lipid maldigestion conditions induced by XENICAL® (ORLISTAT). The comparison was tested in volunteers having a BMI of 37-40 kg/m2 and treated with XENICAL® (ORLISTAT) to induce lipid maldigestion or not treated with XENICAL® (ORLISTAT). The primary objective was to assess accretion of EPA in erythrocytes over 21 days when consumed as fish oil (TAG) or sn-1(3) MAG. The secondary objectives were to assess accretion of EPA in plasma over 21 days and also to assess the pharmacokinetics of EPA after an acute dose either in the form of sn-1(3) MAG or TAG (AUC in chylomicrons over 10 hours postprandial).

Structure (SMILES)	EPA incorporation in red blood cells ([1]; rats fed fish oil with XENICAL (ORLISTAT) vs fish oil without, day 7)	level of EPA incorporated in red blood cells ([1]; compared with fish oil + XENICAL group, all P values lower than 0.05)	level of EPA incorporated in red blood cells ([1]; compared with fish oil group without XENICAL)	carrier for EPA compared with fish oil (TAG) ([2]; obese subjects treated with XENICAL (ORLISTAT))	chronic effect: accretion of EPA in erythrocytes after 21 days ([2]; obese volunteers, with XENICAL (ORLISTAT), compared with fish oil + XENICAL, p=0.0001, FIG. 5)	chronic effect: accretion of EPA in plasma after 21 days ([2]; obese volunteers, with XENICAL (ORLISTAT), relative to fish oil + XENICAL, p=0.0003, FIG. 6)
CCCCCCCCCCC[C@@H](C[C@@H]1OC(=O)[C@H]1CCCCCC)OC(=O)[C@H](CC(C)C)NC=O [XENICAL® (ORLISTAT), tetrahydrolipstatin, reference compound]	decreases EPA incorporation in red blood cells					
CC/C=C\C/C=C\C/C=C\C/C=C\C/C=C\CCCC(=O)OCC(O)CO (stereo not drawn) [sn-1(3) MAG, sn-1(3)-monoeicosapentaenoylglycerol]		statistically higher	even higher than the fish oil group	better carrier for EPA than fish oil	statistically significant	statistically significant
